According to patent publication US20240368125A1, “NOVEL PYRAZINYL-TRIAZOLE COMPOUNDS AS PESTICIDES” (Bayer Aktiengesellschaft, priority 2021, published 2024):

Experiments:
Type in all cases: in vivo
[1] = system: Rhipicephalus (Boophilus) microplus larvae (strain Parkhurst, resistant against synthetic pyrethroids); assay: Rhipicephalus (Boophilus) microplus in-vitro contact test, larval cattle tick; conditions: Rhipicephalus microplus; 1 μg/cm^2 (=100 g/ha), after 48 hours; read-out: efficacy (larvae dead or moribund)
Outline: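 Compound in acetone coated on glass tube inner walls; 900 ppm solution gives 5 μg/cm^2. Pyrethroid-resistant Parkhurst larvae (20-50 per tube) held at 27° C., 85% relative humidity; efficacy assessed after 48 h by scoring negative geotactic behavior after tapping larvae to tube bottom.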

[2] = system: adult engorged female ticks (Rhipicephalus microplus); assay: Rhipicephalus (Boophilus) microplus injection test; conditions: 4 μg/tick, after 7 days
Procedure: Rhipicephalus (Boophilus) Microplus—Injection Test
(§1) Solvent: Dimethyl Sulfoxide
To produce a suitable preparation of active compound, 10 mg of active compound are dissolved in 0.5 mL solvent, and the concentrate is diluted with solvent to the desired concentration.
Five adult engorged female ticks (Rhipicephalus microplus) are injected with 1 μL compound solution into the abdomen. The ticks are transferred into replica plates and incubated in a climate chamber.
After 7 days egg deposition of fertile eggs is monitored. Eggs where fertility is not visible are stored in a climate chamber till hatching after about 42 days. An efficacy of 100% means all eggs are infertile; 0% means all eggs are fertile.

[3] = system: adult cat fleas (Ctenocephalides felis); assay: Ctenocephalides felis in-vitro contact test, adult cat flea; conditions: Ctenocephalides felis; 1 μg/cm^2 (=100 g/ha), after 48 hours; read-out: efficacy (fleas dead or moribund)
[4] = system: adult unfed cat fleas (Ctenocephalides felis); assay: Ctenocephalides felis oral test; conditions: 48 h, 100 ppm in citrated cattle blood, after 2 days
Procedure: Ctenocephalides felis—Oral Test
as §1
To produce a suitable preparation of active compound, 10 mg of active compound are dissolved in 0.5 mL solvent, and the concentrate is diluted with citrated cattle blood to the desired concentration.
Approximately 20 adult unfed cat fleas (Ctenocephalides felis) are placed in a flea chamber whose top and bottom is covered with gauze. A chamber whose bottom is sealed with parafilm, is filled with the blood-compound solution and placed on top of the flea chamber, so that the fleas can suck the blood. The blood chamber is heated to 37° C. whereas the flea chamber is kept at room temperature.
After 2 days mortality in % is determined. 100% means all the fleas have been killed; 0% means none of the fleas have been killed.

[5] = system: adult brown dog ticks (Rhipicephalus sanguineus); assay: Rhipicephalus sanguineus in-vitro contact test, adult brown dog ticks; conditions: Rhipicephalus sanguineus; 1 μg/cm^2 (=100 g/ha), after 48 hours; read-out: efficacy (ticks dead or moribund)
Outline: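 Compound in acetone was coated onto inner walls of glass tubes by rotation (2 h, 30 rpm); 900 ppm gives 5 μg/cm^2. After drying, 5-10 adult ticks were enclosed per tube at room temperature; after 48 h, heat-escape test at 45-50° C scored dead/moribund ticks as % efficacy.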

[6] = system: larvae of the banded cucumber beetle (Diabrotica balteata); assay: Diabrotica balteata spray test; conditions: Diabrotica balteata, 168 h; 100 g/ha (=32 μg/well), wheat seeds, after 7 days; read-out: efficacy (seedlings grown)
Outline: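 Germinated wheat seedlings (5 per well, on agar) sprayed with compound in acetone/DMF with emulsifier-containing water, then infested with 10–20 Diabrotica balteata larvae. Efficacy (%) scored after 7 days from seedling growth: 100% = growth as untreated uninfested control, 0% = no seedlings grown.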

[7] = system: green peach aphid (Myzus persicae); assay: Myzus persicae spray test (MYZUPE); conditions: in Brassica rapa, foliar, 120 h
Procedure: Myzus persicae—Spray Test
Solvent: 78.0 parts by weight acetone • 1.5 parts by weight dimethylformamide
(§2) Emulsifier: alkylarylpolyglycol ether
(§3) To produce a suitable preparation of active compound, 1 part by weight of active compound is mixed with the stated amount of solvents and is diluted with water, containing an emulsifier concentration of 1000 ppm, to the desired concentration. Further test concentrations are prepared by dilution with emulsifier containing water.
Chinese cabbage (Brassica pekinensis) leaf disks infected with all instars of the green peach aphid (Myzus persicae), are sprayed with a preparation of the active ingredient of the desired concentration.
(§4) After 5 days mortality in % is determined. 100% means all aphids have been killed and 0% means none of the aphids have been killed.
Myzus persicae—Spray Test (MYZUPE
After the specified period of time, mortality in % is determined. 100% means all aphids have been killed and 0% means none of the aphids have been killed.

[8] = system: green peach aphid (Myzus persicae); assay: Myzus persicae oral test; conditions: 120 h
Procedure: Solvent: 100 parts by weight acetone
To produce a suitable preparation of active compound, 1 part by weight of active compound is mixed with the stated amount of solvent, and the concentrate is diluted with water to the desired concentration.
50 μL compound solution is filled in microtiter plates and 150 μL IPL41 insect medium (33%+15% sugar) is added to obtain a total volume of 200 μL per well. Afterwards the plates are sealed with parafilm through which a mixed population of the green peach aphid (Myzus persicae) can suck on the compound preparation.
as §4

[9] = system: larvae of the southern green stink bug (Nezara viridula); assay: Nezara viridula spray test; conditions: Nezara viridula, in Hordeum vulgare, 96 h
Procedure: Nezara viridula—Spray Test
(§5) Solvent: 78.0 parts by weight of acetone • • 1.5 parts by weight of dimethylformamide
as §2
as §3, with “solvent,” for “solvents”, “and the concentrate” for “and”
Barley plants (Hordeum vulgare) are sprayed with a test solution containing the desired concentration of the active ingredient and are infested with larvae of the southern green stink bug (Nezara viridula).
After 4 days mortality in % is determined. 100% means all the stink bugs have been killed; 0% means none of the stink bugs have been killed.

[10] = system: brown planthopper (Nilaparvata lugens); assay: Nilaparvata lugens spray test; conditions: Nilaparvata lugens, in Oryza sativa, 96 h
Procedure: Nilaparvata lugens—Spray Test
as §5, §2, §3
Rice plants (Oryza sativa) are sprayed with a preparation of the active ingredient of the desired concentration and the plants are infested with the brown planthopper (Nilaparvata lugens).
After 4 days mortality in % is determined. 100% means all planthoppers have been killed and 0% means none of the planthoppers have been killed.

[11] = system: fall armyworm larvae (Spodoptera frugiperda); assay: Spodoptera frugiperda spray test (SPODFR); conditions: in Zea mays, 168 h
Outline: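 Compound in acetone/dimethylformamide, diluted with water containing 1000 ppm alkylarylpolyglycol ether emulsifier. Maize leaf sections sprayed, dried, then infested with fall armyworm larvae. Mortality (%) scored after 7 days, 100% meaning all caterpillars killed.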

Row | SMILES | pest or weed control at 1 µg/cm2 [1] [%] | efficacy (infertile eggs) [2] [%] | pest or weed control at 1 µg/cm2 [3] [%] | mortality at 100 ppm [4] [%] | pest or weed control at 1 µg/cm2, 100 g/ha [5] [%] | pest or weed control at 32 µg/disc, 100 g/ha [6] [%] | mortality at 100 g/ha [7] [%] | mortality at 20 ppm [8] [%] | mortality at 500 g/ha [9] [%] | mortality at 500 g/ha [10] [%] | mortality at 100 g/ha [11] [%]
1 | C[C@H](NC(=O)c1cc(OC(F)(F)F)cc(S(C)(=O)=O)c1)c1ncnn1-c1cnc(C(=O)N(C)C2CC2)cn1 [Example I-004] | 100 | 100 | 100 | 100 | 100 | 100 | 90 | 100 | 70 | 100 | 100
2 | CCN(C)C(=O)c1cnc(-n2ncnc2[C@H](C)NC(=O)c2cc(OC(F)(F)F)cc(S(C)(=O)=O)c2)cn1 [Example I-018] | 90 |  | 100 |  | 100 | 100 | 100 | 100 | 100 | 100 | 100
3 | C[C@H](NC(=O)c1cc(C(F)(F)F)cc(S(C)(=O)=O)c1)c1ncnn1-c1cnc(C(N)=O)cn1 [Example I-030] |  |  |  |  |  | 100 |  | 100 | 90 |  | 
